Source: patent publication US20260055078A1, “COMPOUND FUNCTIONING AS SMARCA2/4 INHIBITOR AND USE THEREOF” (Gan & Lee Pharmaceuticals Co., Ltd., priority 2022, published 2026)

Legend:
SMARCA2^BD protein = target: T1, SMARCA2^BD protein (Homo sapiens, UniProt P51531, I1395R); experiment: Fluorescence polarization (FP) detection, SMARCA2 bromodomain; assay type: binding; conditions: probe 10 nM, SMARCA2^BD protein 50 nM, 2 h room temperature
T1 construct: His-SMARCA2^BD(S1377-Q1486); His6 (leader mhhhhhhgslvpr\gs, with thrombin-type site lvpr\gs) (N); made in house
Description: (§1) • 1. Perform a fluorescence polarization assay on with the target protein, which has been expressed and purified from prokaryotic cells to a purity of >90%.
(§2) • 2. The fluorescence polarization assay was conducted in a 384-well plate (3820, Corning) protected from light, with an excitation wavelength of 485 nm and an emission wavelength of 520 nm. Fluorescent probe was used in the experiment, and the buffer solution was 25 mM Bis-Tris, 0.01% Triton X-100, at pH 7.5. The final concentration of DMSO after the addition of the compound was less than 1%. The final detection volume per well was 125 μl, containing 50 μl of the fluorescent probe (final concentration 10 nM), 50 μl of SMARCA2^BD protein (final concentration 50 nM) or 50 μl of SMARCA4^BD protein (final concentration 120 nM), and 25 μl of the compound at various concentrations (final concentration ranging from 0 to 100 µM with a 3-fold dilution, a total of 11 concentrations). A control group (probe+protein), a probe control group (probe only), and a blank control group (buffer only) were set up. The fluorescence values were read by an ELISA reader r (SPARK m1000 pro, TECAN) after incubation for 2 h at room temperature on a shaker. The polarization value mP is calculated based on the fluorescence values in parallel and perpendicular directions of each well, and then the inhibition rate is calculated based on the mP value:
(§3) The inhibition rate data was plotted in GraphPad Prism 8.0 software and the IC50 value was calculated.

A549 cell line = experiment: Cell proliferation assay (CCK-8), A549; assay type: cell-based; conditions: Homo sapiens, A549, 96 h; Table 1; 4 days incubation with compound; read-out: A549 cell line CCK8 IC50
Description: (§4) The antiproliferative activity of the compounds on the cells was determined by CCK-8 kit (C0039, Biotronik). A549 (CCL-185™, ATCC) and MCF-7 (HTB-22™, ATCC) cells were incubated with F-12K medium (30-2004, ATCC) containing 10% FBS (10099141C, Gibco) and DMEM medium (11995065, Gibco) containing 10% FBS, respectively, at 37° C. with 5% CO2 until entering the logarithmic growth phase. In 96-well plates, 2800 cells (A549) or 1000 cells (MCF-7) was added in a volume of 100 μL, the blank control group was 100 μL of medium. After one day of incubation at 37° C., 5% CO2, 100 μL of compounds of different concentrations were added (final concentration of […], 3-fold dilution, a total of 9 concentrations), and the control group was added to 100 μL of medium and continued to be incubation for 4 days (A549) or 7 days (MCF-7). According to the manufacturer's instructions, 20 μL of CCK-8 solution was added. Finally, the absorbance at 450 nm was measured using a microplate reader (SPARK m1000 pro, TECAN) after incubation at 37° C. for 2 h (A549) or 4 h (MCF-7).
(§5) The inhibition rate of the compounds on the cells at different concentrations was calculated based on the OD values of each well, and the inhibition rate data were plotted in GraphPad Prism 8.0 software to calculate the IC50 values.

SMARCA4^BD protein = target: T2, SMARCA4^BD protein (Homo sapiens, UniProt P51532); experiment: Fluorescence polarization (FP) detection, SMARCA4 bromodomain; assay type: binding; conditions: probe 10 nM, SMARCA4^BD protein 120 nM, 2 h room temperature
T2 construct: His6 (leader mhhhhhhgslvpr\gs, with thrombin-type site lvpr\gs) (N); made in house
Description: as §1, §2, §3

MCF-7 cell line = experiment: Cell proliferation assay (CCK-8), MCF-7; assay type: cell-based; conditions: Homo sapiens, MCF7, 168 h; Table 1; 7 days incubation with compound; read-out: MCF-7 cell line CCK8 IC50
Description: as §4, §5

Hela cell line = experiment: Cell proliferation assay (CCK-8), Hela; assay type: cell-based; conditions: Homo sapiens, 72 h, Table 2, 3 days incubation with compound, read-out: Hela cell line CCK8 IC50
Description: (§6) The antiproliferative activity of the compounds on the cells was determined by CCK-8 kit (C0039, Biotronik). Hela (CCL-2™, ATCC) and SW1573 (CRL-2170™, ATCC) cells were incubated with DMEM medium (11995065, Gibco) containing 10% FBS (10099141C, Gibco) at 37° C. with 5% CO2 until entering the logarithmic growth phase. In 96-well plates, 2500 cells (Hela) or 800 cells (SW1573) were added in a volume of 100 μL, the blank control group was 100 μL of medium, and after one day of incubation at 37° C., 5% CO2, 100 μL of compounds of different concentrations were added (final concentration of […], 3-fold dilution, a total of 9 concentrations), and the control group was added to 100 μL of medium and continued to incubate for 3 days (Hela) or 7 days (SW1573). Then 20 μL of CCK-8 solution were added. Finally, the absorbance at 450 nm was measured using a microplate reader (SPARK m1000 pro, TECAN) after incubation at 37° C. for 1.5 h (Hela) or 2.5 h (SW1573).
as §5

SW1573 cell line = experiment: Cell proliferation assay (CCK-8), SW1573; assay type: cell-based; conditions: Homo sapiens, SW1573, 168 h; Table 2; 7 days incubation with compound; read-out: SW1573 cell line CCK8 IC50
Description: as §6, §5

[1] = aryl ketone linked to tertiary amines; limited intracellular exposure time; literature; cited from earlier work
148 cancer cells = conditions: background, literature; cited from earlier work

T2 sequence (P51532 1448-1575): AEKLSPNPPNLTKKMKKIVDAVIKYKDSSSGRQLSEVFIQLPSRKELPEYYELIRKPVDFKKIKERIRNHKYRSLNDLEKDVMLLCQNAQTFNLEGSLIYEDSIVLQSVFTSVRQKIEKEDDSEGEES
T1 sequence (P51531 1377-1486 isoform P51531-2 I1395R): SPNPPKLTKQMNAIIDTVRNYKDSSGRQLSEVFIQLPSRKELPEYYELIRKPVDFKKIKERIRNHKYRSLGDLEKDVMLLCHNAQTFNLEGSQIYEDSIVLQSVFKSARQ

## Nc1nnc(-c2ccccc2O)cc1C#CC1CCNCC1 [Compound 1c, 2-(6-amino-5-(piperidin-4-ylethynyl)pyridazin-3-yl)phenol]
SMARCA2^BD protein; Table 1
  IC50: 0.19 µM
A549 cell line
  IC50: 25.4 µM
SMARCA4^BD protein; Table 1
  IC50: 0.3 µM
MCF-7 cell line
  IC50: 12 µM

## Nc1nnc(-c2ccccc2O)cc1C#CC1CCNC1 (stereo not shown) [Compound 2c, 2-(6-Amino-5-(pyrrolidin-3-ylethynyl)pyridazin-3-yl)phenol]
SMARCA2^BD protein; Table 1
  IC50: 0.33 µM
A549 cell line
  IC50: 7.17 µM
SMARCA4^BD protein; Table 1
  IC50: 0.28 µM
MCF-7 cell line
  IC50: 4.73 µM

## Nc1nnc(-c2ccccc2O)cc1C#CC1CNC1 [Compound 3c, 2-(6-amino-5-(azetidinyl-3-ethylenylidene)pyridazin-3-yl)phenol]
SMARCA2^BD protein; Table 1
  IC50: 0.48 µM
A549 cell line
  IC50: 73.3 µM
SMARCA4^BD protein; Table 1
  IC50: 0.57 µM
MCF-7 cell line
  IC50: 31 µM

## Nc1nnc(-c2ccccc2O)cc1C#CC1CC2(CNC2)C1 [Compound 4c, 2-(5-((2-Azaspiro[3.3]hept-6-yl)ethynyl)-6-aminopyridazin-3-yl)phenol]
SMARCA2^BD protein; Table 1
  IC50: 0.19 µM
A549 cell line
  IC50: 15.7 µM
SMARCA4^BD protein; Table 1
  IC50: 0.15 µM
MCF-7 cell line
  IC50: 12.4 µM

## Nc1nnc(-c2ccccc2O)cc1C#CC1CCC2(CC1)CNC2 [Compound 5c, 2-(5-((2-Azaspiro[3.5]nonan-7-yl)ethynyl)-6-aminopyridazin-3-yl)phenol]
SMARCA2^BD protein; Table 1
  IC50: 0.13 µM
A549 cell line
  IC50: 15.4 µM
SMARCA4^BD protein; Table 1
  IC50: 0.13 µM
MCF-7 cell line
  IC50: 7.65 µM

## Nc1nnc(-c2ccccc2O)cc1C#CC1CCC2(CCNCC2)CC1 [Compound 6c, 2-(5-((3-Azaspiro[5.5]undecan-9-yl)ethynyl)-6-aminopyridazin-3-yl)phenol]
SMARCA2^BD protein; Table 1
  IC50: 0.2 µM
A549 cell line
  IC50: 13.6 µM
SMARCA4^BD protein; Table 1
  IC50: 0.15 µM
MCF-7 cell line
  IC50: 3.7 µM

## Nc1nnc(-c2ccccc2O)cc1C#CC1CC2(CCNCC2)C1 [Compound 10c, 2-(5-((7-Azaspiro[3.5]nonan-2-yl)ethynyl)-6-aminopyridazin-3-yl)phenol]
SMARCA2^BD protein; Table 1
  IC50: 0.19 µM
A549 cell line
  IC50: 14.6 µM
SMARCA4^BD protein; Table 1
  IC50: 0.14 µM
MCF-7 cell line
  IC50: 7.03 µM

## COC1(C#Cc2cc(-c3ccccc3O)nnc2N)CCC(N2CCCC2)CC1 (stereo not shown) [Compound 15, 2-(6-amino-5-((1-methoxy-4-(pyrrolidin-1-yl)cyclohexyl)ethynyl)pyridazin-3-yl)phenol]
Hela cell line
  IC50: 25.3 µM
SW1573 cell line
  IC50: 13.1 µM
SMARCA2^BD protein; Table 2
  IC50: 0.19 µM
SMARCA4^BD protein; Table 2
  IC50: 0.21 µM

## COc1ccc(C#Cc2cc(-c3ccccc3O)nnc2N)cc1 [Compound 17, 2-(6-amino-5-((4-methoxyphenyl)ethynyl)pyridazin-3-yl)phenol]
Hela cell line
  IC50: 66.3 µM
SW1573 cell line
  IC50: 99 µM
SMARCA2^BD protein; Table 2
  IC50: 1.1 µM
SMARCA4^BD protein; Table 2
  IC50: > 3.7 µM

## CN(C)[C@H]1[C@@H]2CN(c3cc(-c4ccccc4O)nnc3N)C[C@@H]21 [Compound 20, 2-(6-amino-5-((1R,5S,6s)-6-(dimethylamino)-3-azabicyclo[3.1.0]hex-3-yl)pyridazin-3-yl)phenol]
Hela cell line
  IC50: 39 µM
SW1573 cell line
  IC50: 91.2 µM
SMARCA2^BD protein; Table 2
  IC50: 0.17 µM
SMARCA4^BD protein; Table 2
  IC50: 0.12 µM

## CC(=O)N[C@H]1[C@@H]2CN(c3cc(-c4ccccc4O)nnc3N)C[C@@H]21 [Compound 21, N-((1R,5S,6s)-3-(3-amino-6-(2-hydroxyphenyl)pyridazin-4-yl)-3-azabicyclo[3.1.0]hexan-6-yl)acetamide]
Hela cell line
  IC50: 68.4 µM
SW1573 cell line
  IC50: > 100 µM
SMARCA2^BD protein; Table 2
  IC50: 0.13 µM
SMARCA4^BD protein; Table 2
  IC50: 0.25 µM

## CC(=O)N1CCN(c2cc(-c3ccccc3O)nnc2N)CC1 [Control compound, reference compound]
Hela cell line
  IC50: > 100 µM
SW1573 cell line
  IC50: > 100 µM
SMARCA2^BD protein; Table 1
  IC50: 0.7 µM
A549 cell line
  IC50: > 100 µM
SMARCA4^BD protein; Table 1
  IC50: 0.53 µM
MCF-7 cell line
  IC50: 73.9 µM

## O=C(/C=C/N1C[C@H]2C[C@@H]1CN2c1ccccn1)c1ccccc1O [PFI-3]
[1]
  chemical stability: poor chemical stability
148 cancer cells
  inhibitory activity in 148 cancer cells: did not show significant inhibitory activity
